Where two headings read alike, the source gives them in different places.
What was measured:
[1] = molecular target: T1, T1r2a/T1r3 full-length receptor (Oryzias latipes, UniProt A0A173M094+A0A173M0G2); set-up: method as in PMID 28534491; conditions: ref [11]; cited from earlier work
[2] = molecular target: T1, T1r2a/T1r3 full-length receptor; test: Ca2+-flux receptor response assay in Flip-In 293 cells stably expressing full-length T1r2a, T1r3 and Gα16-gust44; assay type: cell-based, O. latipes; conditions: for ΔRFU: average ± s.e.m.
Procedure: The Ca^2+-flux assay was performed using Flip-In 293 cell line (Life Technologies) stably expressing full-length T1r2a, T1r3, and Gα16-gust44 as described previously. The response stimulated by either 5 or 10 mM amino acid was represented asΔRFU (delta relative fluorescence unit) defined as the maximum fluorescence intensity induced by the addition of the amino acid, subtracted with that of an assay buffer in the absence of amino acid.

[3] = tested on: T1r2a/T1r3LBD; set-up: method as in Nuemket, Yasui, et al. [11]; conditions: ref Nuemket, Yasui, et al. [11]; read-out: FRET EC50; cited from earlier work
[4] = molecular target: medaka T1r2a/T1r3LBD (Oryzias latipes, UniProt A0A173M094+A0A173M0G2); test: Differential scanning fluorimetry (DSF) thermal shift ligand-binding assay; set-up: species or system O. latipes; conditions: for ΔTm: average ± s.e.m., n = 4; for effect on thermal stability / Tm shift of T1r2a/T1r3LBD (in words): DSF, 0.1-10 mM amino acid
Procedure: The protein sample was prepared as described previously. Briefly, Drosophila S2 cells (Invitrogen) stably expressing C-terminal FLAG-tagged T1r2aLBD and T1r3LBD [11, 21] were cultured in ExpressFiveSFM (LifeTechnologies) for five days at 27 °C. The T1r2a/T1r3-LBD protein was purified from the culture medium by the use of ANTI-FLAG M2 Affinity Gel (SIGMA). The purified protein was dialyzed against the assay buffer (20 mM Tris-HCl, 300 mM NaCl, 2 mM CaCl2, pH 8.0).
The protein sample (~1 μg) was mixed with Protein Thermal Shift Dye (Applied Biosystems) and 10~10,000 μM concentration of each amino acid in 20 μL of assay buffer and loaded to a MicroAmpR Fast Optical 48-Well Reaction Plate (Applied Biosystems). Specifically, to minimize the changes of the chemical and optical condition, the amino acid solutions were prepared by the exact same buffer used for the final dialysis of the protein, followed by the re-adjustment of the pH to ~ 8.0 by addition of either NaOH or HCl, and mixed with the protein diluted with the same buffer.
Fluorescent intensity was measured by the StepOne Real-Time PCR System (Applied Biosystems). The temperature was raised from 25 °C to 99 °C with a velocity of 0.022 °C/sec. The reporter and quencher for detection were set as “ROX” and “none”, respectively. Apparent melting transition temperature (Tm) was determined by the use of the maximum of the derivatives of the melt curve (dFluorescence/dT) by Protein Thermal Shift Software version 1.3 (Applied Biosystems).
The apparent dissociation constant (Kd-app) derived from the DSF results was estimated based on Eq 1 proposed by Schellman, assuming that the unfolding of the protein is reversible: ΔTm=Tm−T0=TmT0R/ΔH^0ln(1+[L]/Kd-app) (1) where [L] is the ligand concentration; Tm and T0 are the apparent melting transition temperatures in the presence and absence of the ligand; R is the gas constant; ΔH^0 is the enthalpy of unfolding at T0, assuming that there are no significant variations under the tested conditions. If the melt curves show biphasic profiles, the second (or the right side) Tm values were adopted for calculation, as described in the Results section.
For multiple regression analyses shown in Fig 2B, the apparent Tm values determined at different ligand concentrations were fitted to Eq 1 by using KaleidaGraph (Synergy Software), assuming that the change of the dissociation constant accompanied by the Tm shift is negligible.

[5] = cited from earlier work; for Hydropathy Index: hydrophobicity/hydrophilicity, ref Kyte & Doolittle, J. Mol. Biol., 157, 105 (1982); for pI: ref Handbook of Chemistry and Physics, CRC Press; for logKd_CW (polarity): transfer from cyclohexane to an aqueous solution, ref Radzicka & Wolfenden, Biochemistry, 27, 1664 (1988); for Es'c (steric effects) / πα (hydrophobicity) / HP (hydration potential): α-substituent group; for Es'c (steric effects) / πα (hydrophobicity): ref Akamatsu et al., J. Pharm. Sci., 83, 1026 (1994); for HP (hydration potential): ref Wolfenden et al., Biochemistry, 20, 849 (1981)
[6] = 5 mM amino acid, n = 6 (n = 12 for L-glutamine)
[7] = estimated from ΔRFU at 5 mM by Hill equation, ΔRFUmax 104.3, read-out: EC50-est
[8] = estimated from ΔRFU at 10 mM by Hill equation, ΔRFUmax 104.3, read-out: EC50-est
[9] = from response at 5 mM, log 1/EC50-est
[10] = from response at 10 mM, log 1/EC50-est
[11] = Tm at 8 or 9 ligand concentrations fitted to Eq 1 (Schellman), fitted parameter ± s.e., read-out: DSF Kd-app
[12] = from ΔTm at 10 mM via Eq 1, T0 326.1 K, ΔH0 72.1 kcal mol-1, read-out: Kd-app estimated at a single ligand concentration
[13] = log 1/Kd-app, converted from S1 Table values (10 mM; L-Ala 1 mM, L-Gln 0.1 mM)
[14] = from response at 10 mM, log 1/EC50-est, read-out: pEC50-est (converted)
[15] = read-out: Kd-app estimated at a single ligand concentration, from ΔTm at 0.1 mM via Eq 1, T0 326.1 K, ΔH0 72.1 kcal mol-1
[16] = read-out: Kd-app estimated at a single ligand concentration, from ΔTm at 1 mM via Eq 1, T0 326.1 K, ΔH0 72.1 kcal mol-1
[17] = read-out: Kd-app estimated at a single ligand concentration, from ΔTm at 10 mM via Eq 1, T0 326.1 K, ΔH0 72.1 kcal mol-1
[18] = from ΔTm at 0.1 mM via Eq 1, T0 326.1 K, ΔH0 72.1 kcal mol-1, read-out: Kd-app estimated at a single ligand concentration
[19] = from ΔTm at 1 mM via Eq 1, T0 326.1 K, ΔH0 72.1 kcal mol-1, read-out: Kd-app estimated at a single ligand concentration

T1 sequence (A0A173M0G2 entry or part of it): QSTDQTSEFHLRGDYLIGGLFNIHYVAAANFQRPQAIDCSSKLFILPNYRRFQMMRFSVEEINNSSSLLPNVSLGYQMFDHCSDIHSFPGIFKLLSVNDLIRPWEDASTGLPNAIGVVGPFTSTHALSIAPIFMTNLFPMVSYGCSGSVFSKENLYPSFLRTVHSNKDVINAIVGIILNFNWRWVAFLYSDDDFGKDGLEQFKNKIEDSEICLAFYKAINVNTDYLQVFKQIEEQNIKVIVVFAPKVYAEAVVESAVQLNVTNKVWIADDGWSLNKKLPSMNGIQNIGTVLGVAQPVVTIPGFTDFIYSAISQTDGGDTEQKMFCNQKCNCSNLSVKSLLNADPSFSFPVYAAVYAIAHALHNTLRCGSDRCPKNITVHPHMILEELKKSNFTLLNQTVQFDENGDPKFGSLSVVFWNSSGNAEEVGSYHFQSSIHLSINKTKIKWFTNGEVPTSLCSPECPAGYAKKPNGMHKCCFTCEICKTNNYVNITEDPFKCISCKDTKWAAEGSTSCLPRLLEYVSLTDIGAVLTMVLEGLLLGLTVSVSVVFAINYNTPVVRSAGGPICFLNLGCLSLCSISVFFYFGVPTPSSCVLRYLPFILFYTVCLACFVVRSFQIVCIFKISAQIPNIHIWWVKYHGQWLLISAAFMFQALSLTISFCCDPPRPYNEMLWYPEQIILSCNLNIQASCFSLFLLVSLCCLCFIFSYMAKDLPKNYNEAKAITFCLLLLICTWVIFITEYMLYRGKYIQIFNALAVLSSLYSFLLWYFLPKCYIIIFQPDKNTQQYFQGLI
T1 sequence (A0A173M094 entry or part of it): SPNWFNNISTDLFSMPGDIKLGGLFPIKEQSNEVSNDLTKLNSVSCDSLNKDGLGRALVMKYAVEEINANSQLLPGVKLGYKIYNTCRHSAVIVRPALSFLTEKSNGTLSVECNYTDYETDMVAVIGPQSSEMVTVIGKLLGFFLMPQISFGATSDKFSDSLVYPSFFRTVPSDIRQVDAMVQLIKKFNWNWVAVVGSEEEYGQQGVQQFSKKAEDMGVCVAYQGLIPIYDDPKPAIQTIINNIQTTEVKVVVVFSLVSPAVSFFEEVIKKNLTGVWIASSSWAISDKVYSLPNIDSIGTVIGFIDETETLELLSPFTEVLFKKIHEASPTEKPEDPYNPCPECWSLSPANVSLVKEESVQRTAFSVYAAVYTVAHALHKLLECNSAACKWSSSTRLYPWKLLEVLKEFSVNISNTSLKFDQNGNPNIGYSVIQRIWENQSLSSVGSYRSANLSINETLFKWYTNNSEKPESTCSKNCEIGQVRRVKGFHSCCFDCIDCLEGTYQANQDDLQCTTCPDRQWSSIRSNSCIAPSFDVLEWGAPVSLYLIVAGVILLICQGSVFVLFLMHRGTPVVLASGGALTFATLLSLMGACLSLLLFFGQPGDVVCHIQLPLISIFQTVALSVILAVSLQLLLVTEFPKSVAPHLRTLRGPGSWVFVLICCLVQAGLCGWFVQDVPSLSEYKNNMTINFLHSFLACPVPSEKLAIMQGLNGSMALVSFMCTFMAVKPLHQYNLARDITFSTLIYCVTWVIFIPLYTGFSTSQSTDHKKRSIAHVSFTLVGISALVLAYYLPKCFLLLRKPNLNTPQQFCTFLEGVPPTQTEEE
Chain of medaka T1r2a/T1r3LBD (A0A173M094 entry or part of it): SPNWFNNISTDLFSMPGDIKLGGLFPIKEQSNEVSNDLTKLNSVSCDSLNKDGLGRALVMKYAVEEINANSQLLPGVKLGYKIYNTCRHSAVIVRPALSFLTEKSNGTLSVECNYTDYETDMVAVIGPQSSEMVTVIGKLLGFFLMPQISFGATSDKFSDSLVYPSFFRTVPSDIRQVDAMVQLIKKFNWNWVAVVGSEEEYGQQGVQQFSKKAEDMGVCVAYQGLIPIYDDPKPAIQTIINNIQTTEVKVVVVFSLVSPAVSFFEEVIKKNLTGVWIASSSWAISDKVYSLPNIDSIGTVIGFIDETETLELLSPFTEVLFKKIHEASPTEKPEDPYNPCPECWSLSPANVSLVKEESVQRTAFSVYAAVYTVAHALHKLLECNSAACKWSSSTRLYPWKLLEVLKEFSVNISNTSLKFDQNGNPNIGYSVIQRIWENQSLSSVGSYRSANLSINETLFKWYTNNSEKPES
Chain of medaka T1r2a/T1r3LBD (A0A173M0G2 entry or part of it): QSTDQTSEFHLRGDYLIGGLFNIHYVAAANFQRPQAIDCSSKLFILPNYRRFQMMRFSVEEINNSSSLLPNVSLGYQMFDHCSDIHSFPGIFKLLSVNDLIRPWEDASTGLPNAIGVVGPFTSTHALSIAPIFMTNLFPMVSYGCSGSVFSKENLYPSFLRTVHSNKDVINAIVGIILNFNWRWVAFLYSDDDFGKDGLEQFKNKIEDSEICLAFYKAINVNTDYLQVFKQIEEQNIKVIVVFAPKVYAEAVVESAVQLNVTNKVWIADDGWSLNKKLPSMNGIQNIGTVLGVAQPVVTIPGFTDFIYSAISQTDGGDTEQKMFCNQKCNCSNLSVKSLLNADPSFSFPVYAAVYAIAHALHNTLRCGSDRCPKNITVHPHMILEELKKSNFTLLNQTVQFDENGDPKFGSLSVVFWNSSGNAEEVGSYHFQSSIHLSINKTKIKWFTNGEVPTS

SMILES | ΔRFU [2, 6] | ΔRFU ([2]; 10 mM amino acid, n = 6) | EC50 [2, 7] | EC50 [2, 8] | pEC50-est [2, 10] | EC50 [3] | ΔTm ([4]; 0.1 mM amino acid) | ΔTm ([4]; 1 mM amino acid) | ΔTm ([4]; 10 mM amino acid) | Kd [4, 11] | potency estimated from few doses [4, 12] | pKd-app [4, 13] | Hydropathy Index [5] | pI [5] | logKd_CW (polarity) [5] | Es'c (steric effects) [5] | πα (hydrophobicity) [5] | HP (hydration potential) [5] | potency estimated from few doses [4, 18] | also measured
NC(=O)CCC(N)C(=O)O (stereo in doubt) [D-glutamine] |  |  |  |  |  |  |  |  |  |  |  |  |  |  |  |  |  |  |  | full-length receptor response (in words) [1]: significantly weak responses
NCC(=O)O [Gly, glycine] | 13.4 ± 3.45 | 46.2 ± 9.00 | 33800 µM | 12600 µM | 1.90 | 6180 ± 3320 µM | -0.04 ± 0.12 K | -0.15 ± 0.07 K | 5.08 ± 0.06 K | 3570 ± 4090 µM | 2220 µM | 2.65 |  |  |  |  |  |  |  | pEC50-est [2, 9]: 1.47
C[C@H](N)C(=O)O [L-Ala, L-alanine] | 64.7 ± 12.8 | 90.8 ± 9.46 | 3060 µM | 1490 µM |  | 141 ± 37 µM | 0.41 ± 0.09 K | 6.92 ± 0.03 K | 11.1 ± 0.02 K | 54.1 ± 24.5 µM |  |  | 1.8 | 6 | -1.33 | -0.2 | 0.28 | 1.94 |  | EC50 ([2]; from response at 5 mM, log 1/EC50-est, read-out: pEC50-est (converted)): 3090 µM; EC50 [2, 14]: 1480 µM; effect on thermal stability / Tm shift of T1r2a/T1r3LBD (in words) [4]: exhibited large Tm shifts; Kd-app fold difference compared with FRET EC50 ([4]; Kd-app from 0.1 mM): 4.71 fold; Kd-app fold difference compared with FRET EC50 ([4]; Kd-app from 1 mM): 0.782 fold; Kd-app fold difference compared with FRET EC50 ([4]; Kd-app from 10 mM): 1.91 fold; potency estimated from few doses [4, 15]: 664 µM; potency estimated from few doses [4, 16]: 110 µM; potency estimated from few doses [4, 17]: 269 µM
N=C(N)NCCC[C@H](N)C(=O)O [L-Arg, arginine] | 68.2 ± 5.39 | 63.4 ± 9.85 |  |  |  | 190 ± 35 µM | 0.45 ± 0.17 K | 6.98 ± 0.08 K | 11.0 ± 0.05 K |  |  |  | -4.5 | 10.76 | 4.32 | -0.82 | -0.42 | -19.92 |  | EC50 ([2]; EC50-est, estimated from ΔRFU at 5 mM by Hill equation, ΔRFUmax 104.3): 2650 µM; EC50 ([2]; EC50-est, estimated from ΔRFU at 10 mM by Hill equation, ΔRFUmax 104.3): 6440 µM; EC50 ([2]; pEC50-est, from response at 5 mM, log 1/EC50-est): 2630 µM; EC50 ([2]; pEC50-est, from response at 10 mM, log 1/EC50-est): 6460 µM; Kd ([4]; DSF Kd-app, Tm at 8 or 9 ligand concentrations fitted to Eq 1 (Schellman), fitted parameter ± s.e.): 131 ± 66 µM; effect on thermal stability / Tm shift of T1r2a/T1r3LBD (in words) [4]: thermally stabilized the protein; Kd-app fold difference compared with FRET EC50 ([4]; Kd-app from 0.1 mM): 3.20 fold; Kd-app fold difference compared with FRET EC50 ([4]; Kd-app from 1 mM): 0.568 fold; Kd-app fold difference compared with FRET EC50 ([4]; Kd-app from 10 mM): 1.44 fold; Kd ([4]; pKd-app, log 1/Kd-app, converted from S1 Table values (10 mM; L-Ala 1 mM, L-Gln 0.1 mM)): 275 µM; potency estimated from few doses [4, 15]: 608 µM; potency estimated from few doses [4, 16]: 108 µM; potency estimated from few doses [4, 17]: 274 µM
NC(=O)CC[C@H](N)C(=O)O [L-Gln, L-glutamine] | 104.3 ± 4.24 | 81.0 ± 4.64 |  | 2880 µM |  | 11.5 ± 3.4 µM | 6.26 ± 0.06 K | 10.80 ± 0.05 K | 13.6 ± 0.02 K | 30.9 ± 5.8 µM | 119 µM |  |  |  |  |  |  |  | 14.1 µM | ΔRFU ([2]; 5 mM amino acid, n = 6 (n = 12 for L-glutamine), listed as L-glutamine): 104.3; EC50 [2, 14]: 2880 µM; increase of Tm (ΔTm), second Tm ([4]; 300 μM ligand): 8.7 ± 0.1 °C; potency estimated from few doses [4, 19]: 29.2 µM; Kd ([4]; log 1/Kd-app, converted from S1 Table values (10 mM; L-Ala 1 mM, L-Gln 0.1 mM), read-out: pKd-app (converted)): 14.1 µM
N[C@@H](CCC(=O)O)C(=O)O [L-Glu, glutamate] | 3.73 ± 1.63 | 30.3 ± 1.85 |  | 24400 µM | 1.61 | 1070 ± 382 µM | 0.55 ± 0.26 K | 0.48 ± 0.14 K | 7.06 ± 0.08 K | 422 ± 211 µM | 1050 µM | 2.98 |  | 3.22 | 2.25 | -0.82 | 0.02 | -10.2 | 488 µM | potency estimated from few doses [4, 19]: 5700 µM
N[C@@H](CO)C(=O)O [L-Ser] | 11.5 ± 2.07 | 33.5 ± 7.59 | 40500 µM | 21100 µM | 1.67 |  | -0.14 ± 0.03 K | -1.20 ± 0.03 K | 7.32 ± 0.06 K |  | 956 µM | 3.02 | -0.8 | 5.68 | 2.49 | -0.48 | -0.19 | -5.06 |  | pEC50-est [2, 9]: 1.39
C[C@@H](O)[C@H](N)C(=O)O [L-Thr] | 3.20 ± 1.51 | 18.2 ± 6.01 |  | 47400 µM | 1.32 |  | -0.06 ± 0.09 K | -1.27 ± 0.08 K | 6.99 ± 0.09 K |  | 1080 µM | 2.97 | -0.7 | 5.6 | 1.89 | -0.73 | 0.07 | -4.88 |  | 
CC(C)[C@H](N)C(=O)O [L-Val] | 3.89 ± 1.23 | 32.4 ± 7.56 |  | 22200 µM | 1.65 |  | 0.11 ± 0.24 K | -0.77 ± 0.14 K | 7.85 ± 0.03 K |  | 793 µM | 3.10 | 4.2 | 5.96 | -2.97 | -1.29 | 1 | 1.99 | 2630 µM | 

Source: paper PMC6777825, “Differential scanning fluorimetric analysis of the amino-acid binding to taste receptor using a model receptor protein, the ligand-binding domain of fish T1r2a/T1r3” (PLoS ONE, 2019)
